SMILES strings stand for the structures.

What all share (assay type): biochemical
What all share (conditions): 10-dose, 3-fold from 10 μM

One assay deals with T1, MMP 2 (Homo sapiens, UniProt P08253).
T1 sequence (P08253 110-660): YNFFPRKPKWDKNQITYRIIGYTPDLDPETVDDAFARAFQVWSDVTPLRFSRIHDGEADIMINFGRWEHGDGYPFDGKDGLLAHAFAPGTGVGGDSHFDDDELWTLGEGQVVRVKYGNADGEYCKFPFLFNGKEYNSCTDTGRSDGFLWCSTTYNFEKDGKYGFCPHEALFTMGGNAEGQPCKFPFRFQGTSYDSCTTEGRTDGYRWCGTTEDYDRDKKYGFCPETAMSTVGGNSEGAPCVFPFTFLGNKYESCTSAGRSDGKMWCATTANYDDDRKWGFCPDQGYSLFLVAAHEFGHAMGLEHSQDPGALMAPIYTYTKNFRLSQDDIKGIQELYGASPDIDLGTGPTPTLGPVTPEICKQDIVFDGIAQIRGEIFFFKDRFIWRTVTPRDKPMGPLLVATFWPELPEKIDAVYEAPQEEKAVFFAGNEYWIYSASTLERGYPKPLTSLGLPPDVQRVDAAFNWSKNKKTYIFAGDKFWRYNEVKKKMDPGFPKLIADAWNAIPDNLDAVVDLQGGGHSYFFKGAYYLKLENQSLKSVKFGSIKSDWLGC
The assay can be described thus: Non-TMPRSS2 protease panel: MMP 2. As to the method:
(§1) Biochemical activity of compound 1 (racemic mixture, batch 1), compound 3 (racemic), compound 11, and compound 2 (enantiomer 1, batch 1) in proteases indicated in Table 21, Table 22, Table 23, and Table 24, respectively, were measured by testing the compounds in a 10-dose IC50 with a 3-fold series dilution starting at 10 μM against the proteases. The protease activities were monitored as a time-course measurement of the increase in fluorescence signal from fluorescently-labeled peptide substrate, and initial linear portion of slope (signal/min) was analyzed. The curve fits were performed when the activities at the highest concentration of compounds were less than 65%.

The next assay addresses T2, MMP 7 (Homo sapiens, UniProt P09237).
T2 sequence (P09237 95-267): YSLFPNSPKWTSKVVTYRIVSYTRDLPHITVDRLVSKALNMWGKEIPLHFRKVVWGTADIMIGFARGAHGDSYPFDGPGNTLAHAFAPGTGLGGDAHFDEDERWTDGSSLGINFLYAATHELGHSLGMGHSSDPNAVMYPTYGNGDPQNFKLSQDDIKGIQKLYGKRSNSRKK
The assay can be described thus: Non-TMPRSS2 protease panel: MMP 7. As to the method:
as §1

The target in another assay is MMP 13 (Homo sapiens, UniProt P45452). The assay can be described thus: Non-TMPRSS2 protease panel: MMP 13. As to the method: as §1
Another assay addresses T3, Mpro (Severe acute respiratory syndrome coronavirus 2, UniProt P0DTD1).
T3 construct: MMP 14, Mpro, Plasma Kallikrein
The assay can be described thus: Non-TMPRSS2 protease panel: Mpro. As to the method: as §1

The target in a further assay is T4, FVIIa (Homo sapiens, UniProt P08709).
T4 construct: Elastase, FVIIa, Fxa, FXIa
T4 sequence (P08709 213-466 limits assumed): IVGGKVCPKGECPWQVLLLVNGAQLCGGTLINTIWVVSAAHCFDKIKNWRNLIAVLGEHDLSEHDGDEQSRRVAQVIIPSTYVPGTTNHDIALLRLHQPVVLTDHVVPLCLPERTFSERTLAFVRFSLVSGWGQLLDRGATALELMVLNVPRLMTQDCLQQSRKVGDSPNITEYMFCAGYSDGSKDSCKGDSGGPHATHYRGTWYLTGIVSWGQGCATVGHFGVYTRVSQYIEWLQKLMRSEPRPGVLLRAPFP
T4 sequence (P08709 61-212 partner limits assumed): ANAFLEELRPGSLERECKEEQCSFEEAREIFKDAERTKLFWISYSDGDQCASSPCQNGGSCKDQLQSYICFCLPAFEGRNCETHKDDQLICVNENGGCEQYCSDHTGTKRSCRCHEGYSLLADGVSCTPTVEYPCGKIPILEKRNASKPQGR
Kind of assay: Non-TMPRSS2 protease panel: FVIIa. As to the method: as §1

Another assay deals with T5, Kallikrein 12 (Homo sapiens, UniProt Q9UKR0).
T5 sequence (Q9UKR0 18-248): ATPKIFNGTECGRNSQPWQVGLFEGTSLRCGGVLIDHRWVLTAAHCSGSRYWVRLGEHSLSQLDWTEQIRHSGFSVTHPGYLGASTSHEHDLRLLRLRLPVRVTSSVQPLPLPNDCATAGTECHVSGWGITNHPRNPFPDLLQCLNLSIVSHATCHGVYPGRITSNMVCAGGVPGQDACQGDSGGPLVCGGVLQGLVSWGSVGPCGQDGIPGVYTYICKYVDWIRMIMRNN
The assay can be described thus: Non-TMPRSS2 protease panel: Kallikrein 12. As to the method:
as §1

The next assay has as its target ACE2 (Homo sapiens, UniProt Q9BYF1). Kind of assay: Non-TMPRSS2 protease panel: ACE2. As to the method: as §1
A further assay deals with T6, Kallikrein 5 (Homo sapiens, UniProt Q9Y337).
T6 sequence (Q9Y337 23-293): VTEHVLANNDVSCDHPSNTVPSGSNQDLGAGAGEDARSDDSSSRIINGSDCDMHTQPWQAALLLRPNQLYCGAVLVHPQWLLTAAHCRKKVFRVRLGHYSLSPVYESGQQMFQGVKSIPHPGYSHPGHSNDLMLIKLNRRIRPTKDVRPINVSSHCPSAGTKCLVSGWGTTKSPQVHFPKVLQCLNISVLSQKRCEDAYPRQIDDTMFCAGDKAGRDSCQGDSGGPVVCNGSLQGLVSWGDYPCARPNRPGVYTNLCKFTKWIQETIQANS
Kind of assay: Non-TMPRSS2 protease panel: Kallikrein 5. As to the method:
as §1

Another assay concerns the target Plasmin (Homo sapiens, UniProt P00747). Kind of assay: Non-TMPRSS2 protease panel: Plasmin. As to the method:
as §1

Another assay concerns the target Urokinase (Homo sapiens, UniProt P00749). Kind of assay: Non-TMPRSS2 protease panel: Urokinase. As to the method:
as §1

In a further assay the test system is Trypsin. The assay can be described thus: Non-TMPRSS2 protease panel: Trypsin. As to the method:
as §1

ACE2, sequence (Q9BYF1 18-805): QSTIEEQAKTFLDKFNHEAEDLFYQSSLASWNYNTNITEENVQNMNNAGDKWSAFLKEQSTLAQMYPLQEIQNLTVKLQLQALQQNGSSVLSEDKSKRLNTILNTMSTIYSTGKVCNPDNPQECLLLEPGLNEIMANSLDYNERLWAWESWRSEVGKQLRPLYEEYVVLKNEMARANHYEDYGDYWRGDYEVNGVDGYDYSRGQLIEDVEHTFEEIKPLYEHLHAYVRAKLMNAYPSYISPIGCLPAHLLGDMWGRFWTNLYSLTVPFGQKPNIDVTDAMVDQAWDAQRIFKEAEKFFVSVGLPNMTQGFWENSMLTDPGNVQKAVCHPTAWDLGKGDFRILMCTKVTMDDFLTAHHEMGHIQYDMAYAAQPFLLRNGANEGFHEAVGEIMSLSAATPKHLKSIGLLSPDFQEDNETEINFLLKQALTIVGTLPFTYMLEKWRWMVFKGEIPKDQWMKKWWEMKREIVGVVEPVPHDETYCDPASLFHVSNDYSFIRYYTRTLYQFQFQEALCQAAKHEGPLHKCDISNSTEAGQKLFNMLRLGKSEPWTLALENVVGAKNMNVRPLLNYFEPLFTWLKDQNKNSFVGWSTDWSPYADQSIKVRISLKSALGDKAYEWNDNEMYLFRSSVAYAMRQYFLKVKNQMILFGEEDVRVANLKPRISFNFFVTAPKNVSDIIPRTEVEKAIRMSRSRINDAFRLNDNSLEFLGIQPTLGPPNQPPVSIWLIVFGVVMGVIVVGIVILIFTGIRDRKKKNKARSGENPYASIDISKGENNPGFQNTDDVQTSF
Plasmin, sequence (P00747 581-810 limits assumed, species assumed): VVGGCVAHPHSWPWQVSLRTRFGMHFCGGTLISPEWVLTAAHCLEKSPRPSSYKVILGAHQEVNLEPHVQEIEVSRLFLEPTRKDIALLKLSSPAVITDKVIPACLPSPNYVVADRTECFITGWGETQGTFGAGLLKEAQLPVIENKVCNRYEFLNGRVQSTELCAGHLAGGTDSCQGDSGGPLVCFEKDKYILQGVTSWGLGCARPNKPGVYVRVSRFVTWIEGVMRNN
Plasmin, sequence (P00747 97-580 partner limits assumed, species assumed): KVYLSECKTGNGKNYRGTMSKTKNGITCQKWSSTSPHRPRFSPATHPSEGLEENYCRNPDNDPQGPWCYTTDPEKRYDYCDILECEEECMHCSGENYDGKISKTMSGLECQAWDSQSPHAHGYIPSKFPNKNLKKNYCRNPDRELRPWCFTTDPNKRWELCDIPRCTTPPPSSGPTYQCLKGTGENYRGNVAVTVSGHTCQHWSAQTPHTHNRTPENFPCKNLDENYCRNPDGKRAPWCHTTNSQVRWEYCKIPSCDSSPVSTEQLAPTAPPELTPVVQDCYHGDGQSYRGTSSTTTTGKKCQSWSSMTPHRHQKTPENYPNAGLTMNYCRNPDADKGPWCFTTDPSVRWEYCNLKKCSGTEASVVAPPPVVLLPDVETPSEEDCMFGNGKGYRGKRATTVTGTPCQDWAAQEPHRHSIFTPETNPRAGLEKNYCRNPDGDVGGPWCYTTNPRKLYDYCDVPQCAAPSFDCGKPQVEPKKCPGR

`COc1ccc2nc(C(Cc3cccc(C(=N)N)c3)NS(=O)(=O)c3ccccc3)sc2c1` (centres unmarked) [Compound 11, 3-[2-Benzenesulfonamido-2-(6-methoxy-1,3-benzothiazol-2-yl)ethyl]benzene-1-carboximidamide]: the IC50 at MMP 2, against MMP 7, against MMP 13, on Mpro, against FVIIa (Factor VIIa) and at Kallikrein 12 was above 10 µM throughout. Further, the IC50 at ACE2 is above 10 µM; on Kallikrein 5 it was above 10 µM; against Plasmin, above 10 µM; on Urokinase, below 10 µM; in the assay on Trypsin it was above 10 µM.
Consider `N=C(N)c1cccc(CC(NS(=O)(=O)c2cccc(-c3ccc(Cl)cc3Cl)c2)c2nc3ccccc3s2)c1` (racemic) [3 (racemic), 3-[2-(1,3-Benzothiazol-2-yl)-2-{2′,4′-dichloro-[1,1′-biphenyl]-3-sulfonamido}ethyl]benzene-1-carboximidamide], for which the IC50 on MMP 2 was below 10 µM; on MMP 7, above 10 µM; at MMP 13 it was above 10 µM; on Mpro, above 10 µM; against FVIIa (FVIIa) it was above 10 µM; on Kallikrein 12 it was above 10 µM. Besides, the IC50 at ACE2 was above 10 µM; at Kallikrein 5, above 10 µM; against Plasmin, above 10 µM; on Urokinase it was above 10 µM; with Trypsin it was below 10 µM.
For `N=C(N)c1cccc(C[C@H](NS(=O)(=O)c2ccccc2)c2nnco2)c1` (single isomer, unassigned) [Compound 2 (enantiomer 1, batch 1), 3-[2-Benzenesulfonamido-2-(1,3,4-oxadiazol-2-yl)ethyl]benzene-1-carboximidamide], the concentration for half-maximal inhibition (IC50) against MMP 2, against MMP 7, against MMP 13, against Mpro, against FVIIa (FVIIa) and against Kallikrein 12 was above 10 µM each time. For the same molecule, the IC50 on ACE2, on Kallikrein 5, against Plasmin, against Urokinase and in the assay with Trypsin was above 10 µM each time.
`N=C(N)c1cccc(CC(NS(=O)(=O)c2ccccc2)c2nc3ccccc3s2)c1` (racemic) [1 (racemic mixture, batch 1), 3-[2-Benzenesulfonamido-2-(1,3-benzothiazol-2-yl)ethyl]benzene-1-carboximidamide]: the IC50 against MMP 2, at MMP 7, at MMP 13, against Mpro, against FVIIa (FVIIa) and at Kallikrein 12 was above 10 µM throughout. For the same molecule, the IC50 against ACE2, against Kallikrein 5, on Plasmin, on Urokinase and with Trypsin was above 10 µM throughout.

The record behind these values is patent US20240132457A1, “3-(2-(BENZO[D]THIAZOL-2-YL)-2-(PHENYLSUFONAMIDO)ETHYL)BENZIMIDAMIDE DERIVATIVES AND RELATED COMPOUNDS AS TMPRSS2 INHIBITORS FOR THE TREATMENT OF VIRAL INFECTIONS” (INTEGERBIO, INC., priority 2020, published 2024).
